Assay results reported in patent US20120328721A1, “ALOE VERA SPROUT CONCENTRATE OR EXTRACT HAVING SUPERIOR SKIN CELL GROWTH PROMOTION, ANTIOXIDANT, AND ANTI-ALLERGY EFFECTS” (l, priority 2009, published 2012).

Test system: type I collagen mRNA
Experiment: Promotion of collagen synthesis (type I collagen mRNA, RT-PCR)
Format: cell-based
Conditions: positive control vitamin C 100 μg/ml
Description: To evaluate the inhibitory activity against MMP-1 gene expression of Aloe vera shoot concentrate, the change of mRNA expression was measured. RNA was extracted by using Trizol (Invitrogen, USA) according to the guanidium thiocyanate-phenol-chloroform extraction method, and then RT-PCR was carried out by using an All-in-one RT-PCR kit (SuperBio, Korea). PCR (reverse transcription at 50° C. for 30 minutes, inactivation of reverse transcriptase at 96° C. for 3 minutes, 25 cycles of 94° C. for 1 minute, 48° C. for 1 minute and 72° C. for 1 minute) was carried out by using an MMP-1 primer of Table 9, and actin was used as a control group. To evaluate the activity for the promotion of collagen synthesis of Aloe vera shoot concentrate, the expression of collagen mRNA was measured. RT-PCR was carried out with the same method as Experimental Example 9 except that the condition was 30 cycles of 94° C. for 1 minute, 62° C. for 1 minute and 72 ° C. for 1 minute, and collagen primer of Table 11 was used.

With `O=C1O[C@H]([C@@H](O)CO)C(O)=C1O` [vitamin C] the “Type I collagen expression amount (%)” value (column 100 μg/ml) was 131.1% and the “Type I collagen expression amount (%)” value (column 200 μg/ml) was 156.3%.
